Here are results for two compounds from patent publication US20140271485A1, “USE OF COELENTERAZINE FOR IMAGING INSULIN-GENERATING BETA-CELLS” (The Board of Trustees of the Leland Stanford Junior …, priority 2013, published 2014).

“Also recorded” adds a separate entry of the source.

Experiment [1] deals with β-cell mass (pancreatic signal). Put plainly: Streptozotocin-induced diabetic mouse model, coelenterazine imaging of pancreas. Type of experiment: in vivo, mice. Here is the method: FIGS. 4A-4D illustrate the results from a streptozotocin-induced diabetic mouse model. Mice were treated with 200 mg/kg of streptozotocin (STZ) or PBS on day 0.
Top Panel: 3-days post-treatment, mice were administered 2 g/kg glucose and maintained on 10% sucrose water. Four h later, mice were intravenously injected with 1.4 mg/kg of coelenterazine and imaged. Bottom panel: Bioluminescence imaging of the excised pancreases collected from the mice depicted in top panel.
To conclusively determine the β-cell specificity of the signal, coelenterazine was used to image the pancreas of mice that received the β-cell toxic agent streptozotocin (STZ) versus a Phosphate-Buffered Saline (PBS) control in which the β-cells were functional.

Experiment [2] deals with rat insulinoma cell lines (RIN5F β-cell line). Nature of the experiment: In vitro bioluminescence imaging of cell lines with coelenterazine (cell plate assay). Type of experiment: cell-based. The procedure:
FIG. 1A is a digital image illustrating a cell plate assay. 10^5 cells of each cell line were washed two times in serum-free RPMI and plated in a 96-well black plate. Coelenterazine was added to a final concentration of 10 μM and the plate imaged. RIN5F is a β-cell line and the remainder are control cell lines.
FIG. 1B is a graph illustrating the quantification of the bioluminescence signals of FIG. 1A. Error bars represent the standard error.
In vitro experiments for the imaging cell lines may be completed on the day of cell collection or following incubation. If imaging is performed following prolonged incubation combined with comparisons between dissimilar cell lines, it is important to consider the likelihood of there being a different division rate for each cell line.
For same-day imaging, the cells are collected by a method dictated by the particular cell line. Cells are washed twice in imaging buffer by repeated resuspension and centrifugation (a variety of buffers have proven effective, including: PBS, DPBS and Krebs). […] The desired concentration of cells is added to an imaging plate.
Coelenterazine is resuspended to a concentration of about 1-10 mg/mL in 100% ethanol and then diluted in imaging buffer to achieve the desired imaging concentration. […]
The coelenterazine is added to wells to be imaged and the signal detected using a bioluminescence detection system such as an IVIS. […]

Experiment [3] relates to β-cell mass (pancreatic signal). Put plainly: In vivo bioluminescence imaging of beta cell mass after intravenous coelenterazine. Also noted: species or system mice. The procedure: FIG. 3A is a digital image, for the in vivo characterization of a coelenterazine (CTZ) pancreatic signal, showing the bioluminescence imaging of mice that were fasted for 6 h or received 2 g/kg intraperitoneal glucose and maintained on 10% sucrose water for 4 h. Mice then received 40 μg CTZ intravenously and were imaged immediately. FIG. 3C is a digital image, for the in vivo characterization of a coelenterazine (CTZ) pancreatic signal, showing the bioluminescence imaging of mice treated with glucose followed by administration of 0.56, 1.4, or 3.5 mg/kg CTZ intravenously. FIG. 3D is a graph illustrating the quantification of the signal detected in FIG. 3C at 1 min intervals following CTZ injection. […] A standardized anesthetic protocol with a defined anesthetic dose and induction period (if using inhalant anesthetics) is also required. Coelenterazine is prepared at a concentration of 10 mg/mL in 100% ethanol. The coelenterazine may be further diluted in a pharmaceutically acceptable carrier selected as suitable for injection into an animal subject for imaging. […] It is important to protect the imaging solution from light and that is prepared immediately prior to use. Following anesthetic induction, the imaging solution is intravenously administered at a dose of about 1-10 mg/kg and imaging is begun immediately in using an in vivo bioluminescence imaging system.

For the next experiment, the system named is pancreas. Put plainly: Ex vivo bioluminescence imaging of excised tissues with coelenterazine. Details: species or system mice. The note with it: ex vivo imaging of excised mouse tissues; significance P<0.05. Here is the method: FIG. 2A is a digital image illustrating bioluminescence images of excised tissues from 3 mice in 1 mL PBS with 20 μg coelenterazine and imaged immediately.
Error bars represent the standard error and significance is defined as P<0.05.

Take `CN(N=O)C(=O)N[C@H]1C(O)O[C@H](CO)[C@@H](O)[C@@H]1O` (mixture of isomers) [streptozotocin]: in experiment [1] (200 mg/kg STZ on day 0, measured on day 3), the “blood glucose values, STZ versus PBS” value is recorded as “difference (P=0.0265)”.
As for `O=c1c(Cc2ccc(O)cc2)nc2c(Cc3ccccc3)[nH]c(-c3ccc(O)cc3)cn1-2` [coelenterazine, 6-(4-hydroxyphenyl)-2-[(4-hydroxyphenyl)methyl]-8-(phenylmethyl)-7H-imidazo[3,2-a]pyrazin-3-one], in experiment [2] (in the absence of any additional reagents), the “coelenterazine-dependent bioluminescence signal of rat insulinoma cell lines relative to other cell lines” value is on record as “greater coelenterazine-dependent bioluminescence signal relative to other cell lines”. The “time to stable maximum of signal following coelenterazine addition” value in experiment [2] (in vitro, cells in imaging buffer) was 15 to 45 min. In addition, in experiment [3] (intravenous, about 1-10 mg/kg), the “time of maximum pancreatic signal intensity post-injection” value fell in the range of 2 to 5 min. The “signal of insulin-secreting β-cells compared to cells quiescent due to fasting” value in experiment [3] (mice, glucose-treated vs fasted) is on record as “insulin-secreting β-cells produced a greater signal”. For the same compound, in experiment [3] (mice, intravenous), the “dose dependence of detectable signal intensity” value is recorded as “dose-dependent” and the “location of bioluminescence signal upon intravenous injection” value was “pancreatic-specific bioluminescent signal; also recorded: a mid-upper abdominal bioluminescence signal was detected”. Besides, the “pancreatic signal in STZ-treated mice versus PBS control” value in experiment [1] (STZ 200 mg/kg day 0, imaging 3 days post-treatment, in vivo and ex vivo pancreas) was “significant difference (P=0.0000); also recorded: reduced in type I diabetic mice; also recorded: significant reduction in pancreatic signal in STZ-treated mice”. Further, in experiment [1] (STZ and PBS mice), the “correlation between pancreatic signal and blood glucose” value was “correlation was significant (P=0.0317); also recorded: significant and inverse correlation”. Moreover, the “bioluminescence signal of pancreas compared to other tissues” value in the experiment with pancreas was “Significantly greater signals were detected from the pancreas compared to all other tissues; also recorded: significantly elevated pancreatic signal compared to other examined non-insulin-producing tissues”.
